Values quoted from earlier work, collected in patent US20240390265A1, “FORMULATIONS FOR TRANSDERMAL ADMINISTRATION OF ACTIVE AGENTS” (DYVE BIOSCIENCES, INC., priority 2022, published 2024).
Values belong to the compound of their own block, whether it stands above or below them.

Legend:
BRAF [1] = molecular target: T1, BRAF (Homo sapiens, UniProt P15056); settings: read-out: IC50 (B-Raf inhibitor)
Target sequence in this assay (P15056 2-766 limits assumed): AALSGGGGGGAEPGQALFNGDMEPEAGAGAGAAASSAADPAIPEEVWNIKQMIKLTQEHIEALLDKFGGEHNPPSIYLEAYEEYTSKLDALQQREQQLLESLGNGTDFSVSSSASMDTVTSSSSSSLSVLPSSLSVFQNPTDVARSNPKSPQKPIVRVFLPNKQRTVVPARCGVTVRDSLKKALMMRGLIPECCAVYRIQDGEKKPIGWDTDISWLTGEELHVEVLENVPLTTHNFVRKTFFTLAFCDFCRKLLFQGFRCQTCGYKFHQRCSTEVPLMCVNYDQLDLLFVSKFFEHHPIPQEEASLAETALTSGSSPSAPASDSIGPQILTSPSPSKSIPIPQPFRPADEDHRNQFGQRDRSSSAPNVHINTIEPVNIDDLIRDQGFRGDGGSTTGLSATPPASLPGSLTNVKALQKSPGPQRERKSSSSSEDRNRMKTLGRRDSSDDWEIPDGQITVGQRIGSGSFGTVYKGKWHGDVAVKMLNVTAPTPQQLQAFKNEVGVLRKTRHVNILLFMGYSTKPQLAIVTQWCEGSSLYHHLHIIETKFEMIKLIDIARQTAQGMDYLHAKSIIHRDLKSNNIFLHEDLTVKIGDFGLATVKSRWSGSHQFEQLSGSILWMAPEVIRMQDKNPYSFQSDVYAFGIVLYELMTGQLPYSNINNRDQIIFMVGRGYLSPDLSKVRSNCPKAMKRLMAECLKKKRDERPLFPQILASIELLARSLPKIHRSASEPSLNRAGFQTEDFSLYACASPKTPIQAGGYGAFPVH

[2] = system: tumor models harboring KRAS G12D mutations
[3] = system: KRAS G12D mutant tumor cells
CRAF = CRAF (Homo sapiens, UniProt P04049)
Chain of CRAF (P04049 whole entry): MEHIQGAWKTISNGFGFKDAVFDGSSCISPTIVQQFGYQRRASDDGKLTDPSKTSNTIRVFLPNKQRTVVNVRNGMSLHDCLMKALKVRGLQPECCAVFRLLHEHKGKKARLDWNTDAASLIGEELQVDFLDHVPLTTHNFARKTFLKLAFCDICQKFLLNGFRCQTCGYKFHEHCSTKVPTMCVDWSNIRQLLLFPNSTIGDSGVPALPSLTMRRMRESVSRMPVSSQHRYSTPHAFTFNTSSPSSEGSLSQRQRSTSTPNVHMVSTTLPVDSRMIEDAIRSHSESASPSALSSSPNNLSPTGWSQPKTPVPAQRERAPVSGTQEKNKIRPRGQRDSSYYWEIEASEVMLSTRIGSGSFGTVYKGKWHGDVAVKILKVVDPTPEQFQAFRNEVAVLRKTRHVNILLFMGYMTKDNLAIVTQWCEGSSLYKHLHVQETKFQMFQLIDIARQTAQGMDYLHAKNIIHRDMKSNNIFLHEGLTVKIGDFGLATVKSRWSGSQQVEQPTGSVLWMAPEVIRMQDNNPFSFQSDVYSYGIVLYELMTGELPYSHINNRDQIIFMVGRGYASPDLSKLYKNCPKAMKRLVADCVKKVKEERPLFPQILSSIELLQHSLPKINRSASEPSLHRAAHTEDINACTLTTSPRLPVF

[4] = in vivo
BRAF [5] = molecular target: T1, BRAF
Target sequence in this assay (P15056 whole entry): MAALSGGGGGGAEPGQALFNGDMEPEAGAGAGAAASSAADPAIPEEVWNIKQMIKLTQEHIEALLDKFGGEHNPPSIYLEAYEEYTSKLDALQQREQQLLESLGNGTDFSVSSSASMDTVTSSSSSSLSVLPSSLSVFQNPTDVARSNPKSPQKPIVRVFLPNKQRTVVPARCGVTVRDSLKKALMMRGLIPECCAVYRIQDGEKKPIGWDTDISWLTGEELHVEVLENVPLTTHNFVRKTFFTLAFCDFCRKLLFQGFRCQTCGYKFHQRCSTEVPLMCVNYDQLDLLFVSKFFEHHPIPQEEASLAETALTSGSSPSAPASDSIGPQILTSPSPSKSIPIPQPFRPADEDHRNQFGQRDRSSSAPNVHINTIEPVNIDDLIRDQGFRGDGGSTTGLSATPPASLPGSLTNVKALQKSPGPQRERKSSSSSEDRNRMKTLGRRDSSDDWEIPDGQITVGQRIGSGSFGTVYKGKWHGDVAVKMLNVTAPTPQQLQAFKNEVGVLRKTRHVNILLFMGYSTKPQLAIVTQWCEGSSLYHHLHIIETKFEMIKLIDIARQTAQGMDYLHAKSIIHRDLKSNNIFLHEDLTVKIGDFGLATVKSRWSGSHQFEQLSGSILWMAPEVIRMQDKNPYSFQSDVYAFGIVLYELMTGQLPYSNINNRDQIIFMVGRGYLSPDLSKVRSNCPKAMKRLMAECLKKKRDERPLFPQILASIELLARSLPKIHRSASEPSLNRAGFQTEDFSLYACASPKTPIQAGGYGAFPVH

[6] = system: panel of 456 human kinases
[7] = system: cell line and primary human tumor derived xenograft models; settings: at well-tolerated doses

IC50 (BRAF [1]): 11.7 nM
SMILES: Cc1ccc2c(Nc3cccc(OC(F)(F)F)c3)nccc2c1Nc1ncccc1-c1ncnc2nc[nH]c12 [LUT014, 6-methyl-5-N-[3-(7H-purin-6-yl)pyridin-2-yl]-1-N-[3-(trifluoromethoxy)phenyl]isoquinoline-1,5-diamine]

SMILES: C#Cc1c(F)ccc2cc(O)cc(-c3ncc4c(N5CC6CCC(C5)N6)nc(OC[C@@]56CCCN5C[C@H](F)C6)nc4c3F)c12 [MRTX1133]
in vivo efficacy in tumor models harboring KRAS G12D mutations [2]: marked in vivo efficacy
activity in cellular assays [3]: single digit nanomolar

concentrations inhibiting CRAF kinase activity (CRAF): picomolar
oral bioavailability [4]: orally bioavailable
concentrations inhibiting BRAF kinase activity (BRAF [5]): picomolar
SMILES: Cc1ccc(NC(=O)c2ccnc(C(F)(F)F)c2)cc1-c1cc(OCCO)nc(N2CCOCC2)c1 [Naporafenib]
selectivity against a panel of 456 human kinases [6]: high degree of selectivity
effect on tumors in xenograft models [7]: tumor regression
